For this data set, the system named is CCRIS mutagenicity, Ames/micronucleus/aberration tests. As to the kind of experiment: CCRIS mutagenicity studies.
Where [1] appears, read: Test System: AMES SALMONELLA TYPHIMURIUM, Strain/Indicator: TA98, Metabolic Activation: NONE, Method: PREINCUBATION
Setting [2] is: Test System: AMES SALMONELLA TYPHIMURIUM, Strain/Indicator: TA98, Metabolic Activation: NONE, Method: STANDARD PLATE.
The mark [3] stands for this setting: Test System: AMES SALMONELLA TYPHIMURIUM, Strain/Indicator: TA100, Metabolic Activation: NONE, Method: PREINCUBATION
Where [4] appears, read: Test System: AMES SALMONELLA TYPHIMURIUM, Strain/Indicator: TA100, Metabolic Activation: NONE, Method: STANDARD PLATE.
Where [5] appears, read: Test System: AMES SALMONELLA TYPHIMURIUM, Strain/Indicator: TA1535, Metabolic Activation: NONE, Method: PREINCUBATION
[6] abbreviates: Test System: AMES SALMONELLA TYPHIMURIUM, Strain/Indicator: TA1537, Metabolic Activation: NONE, Method: PREINCUBATION

SMILES strings stand for the structures. Calls of active or inactive are those of the source. No rule for the calls is given here.

In the case of `NCCNCCNCCNCCN`, the mutagenic call by setting is: under setting [1], “active; positive”; under setting [2], “inactive; negative”; (Test System: AMES SALMONELLA TYPHIMURIUM, Strain/Indicator: TA98, Metabolic Activation: RAT, LIVER, S-9, AROCLOR 1254, Method: STANDARD PLATE) “inactive; negative”; (Test System: AMES SALMONELLA TYPHIMURIUM, Strain/Indicator: TA98, Metabolic Activation: RAT, LIVER, S-9, PCB, Method: PREINCUBATION) “inactive; negative”; (Test System: AMES SALMONELLA TYPHIMURIUM, Strain/Indicator: TA100, Metabolic Activation: HAMSTER, LIVER, S-9, AROCLOR 1254 (10%), Method: PREINCUBATION) “active; positive”; under setting [3], “active; positive”. Besides, the mutagenic call was “inactive; negative” under setting [4]; “active; positive” (Test System: AMES SALMONELLA TYPHIMURIUM, Strain/Indicator: TA100, Metabolic Activation: RAT, LIVER, S-9, AROCLOR 1254 (10%), Method: PREINCUBATION); “inactive; negative” (Test System: AMES SALMONELLA TYPHIMURIUM, Strain/Indicator: TA100, Metabolic Activation: RAT, LIVER, S-9, AROCLOR 1254, Method: STANDARD PLATE); “inactive; negative” (Test System: AMES SALMONELLA TYPHIMURIUM, Strain/Indicator: TA100, Metabolic Activation: RAT, LIVER, S-9, PCB, Method: PREINCUBATION); “inactive; negative” under setting [5]; “inactive; negative” (Test System: AMES SALMONELLA TYPHIMURIUM, Strain/Indicator: TA1535, Metabolic Activation: NONE, Method: STANDARD PLATE). Moreover, the mutagenic call by setting is: (Test System: AMES SALMONELLA TYPHIMURIUM, Strain/Indicator: TA1535, Metabolic Activation: RAT, LIVER, S-9, AROCLOR 1254, Method: STANDARD PLATE) “inactive; negative”; (Test System: AMES SALMONELLA TYPHIMURIUM, Strain/Indicator: TA1537, Metabolic Activation: HAMSTER, LIVER, S-9, AROCLOR 1254 (10%), Method: PREINCUBATION) “inactive; negative”; under setting [6], “inactive; negative”; (Test System: AMES SALMONELLA TYPHIMURIUM, Strain/Indicator: TA1537, Metabolic Activation: NONE, Method: STANDARD PLATE) “inactive; negative”; (Test System: AMES SALMONELLA TYPHIMURIUM, Strain/Indicator: TA1537, Metabolic Activation: RAT, LIVER, S-9, AROCLOR 1254 (10%), Method: PREINCUBATION) “inactive; negative”; (Test System: AMES SALMONELLA TYPHIMURIUM, Strain/Indicator: TA1537, Metabolic Activation: RAT, LIVER, S-9, AROCLOR 1254, Method: STANDARD PLATE) “inactive; negative”. For the same compound, the mutagenic call is “inactive; negative” (Test System: AMES SALMONELLA TYPHIMURIUM, Strain/Indicator: TA1538, Metabolic Activation: NONE, Method: STANDARD PLATE); “inactive; negative” (Test System: AMES SALMONELLA TYPHIMURIUM, Strain/Indicator: TA1538, Metabolic Activation: RAT, LIVER, S-9, AROCLOR 1254, Method: STANDARD PLATE); “inactive; negative” (Test System: CHINESE HAMSTER OVARY, Strain/Indicator: CHO (HGPRT)/6-THIOGUANINE, Metabolic Activation: NONE); “inactive; negative” (Test System: CHINESE HAMSTER OVARY, Strain/Indicator: CHO (HGPRT)/6-THIOGUANINE, Metabolic Activation: RAT, LIVER, S-9, AROCLOR 1254); “active; positive” (Test System: UDS RAT HEPATOCYTES, Strain/Indicator: THY INCORP, Metabolic Activation: NONE, Method: SCINTILLATION SPECTROMETRY).
Consider `CC1=CCC(O)(C(C)C)CC1` (centres undefined), for which the mutagenic call runs as follows: under setting [2], “inactive; negative”; (Test System: AMES SALMONELLA TYPHIMURIUM, Strain/Indicator: TA98, Metabolic Activation: RAT, LIVER, S-9, Method: STANDARD PLATE) “inactive; negative”; under setting [4], “inactive; negative”; (Test System: AMES SALMONELLA TYPHIMURIUM, Strain/Indicator: TA100, Metabolic Activation: RAT, LIVER, S-9, Method: STANDARD PLATE) “inactive; negative”; (Test System: AMES SALMONELLA TYPHIMURIUM, Strain/Indicator: TA102, Metabolic Activation: NONE, Method: STANDARD PLATE) “inactive; negative”; (Test System: AMES SALMONELLA TYPHIMURIUM, Strain/Indicator: TA102, Metabolic Activation: RAT, LIVER, S-9, Method: STANDARD PLATE) “inactive; negative”.
In the case of `O=C(O)C=C(C(Cl)Cl)C(Cl)Cl`, the mutagenic call reads like this: under setting [1], “inactive; negative”; under setting [3], “active; positive”; (Test System: AMES SALMONELLA TYPHIMURIUM, Strain/Indicator: TA104, Metabolic Activation: NONE, Method: PREINCUBATION) “inactive; negative”.
In the case of `Brc1cccc(-c2ccccc2)c1`, the mutagenic call reads like this: (Test System: AMES SALMONELLA TYPHIMURIUM, Strain/Indicator: TA98, Metabolic Activation: HAMSTER, LIVER, S-9, AROCLOR 1254, Method: PREINCUBATION) “inactive; negative”; under setting [1], “inactive; negative”; (Test System: AMES SALMONELLA TYPHIMURIUM, Strain/Indicator: TA98, Metabolic Activation: RAT, LIVER, S-9, AROCLOR 1254, Method: PREINCUBATION) “inactive; negative”; (Test System: AMES SALMONELLA TYPHIMURIUM, Strain/Indicator: TA100, Metabolic Activation: HAMSTER, LIVER, S-9, AROCLOR 1254, Method: PREINCUBATION) “inactive; negative”; under setting [3], “inactive; negative”; (Test System: AMES SALMONELLA TYPHIMURIUM, Strain/Indicator: TA100, Metabolic Activation: RAT, LIVER, S-9, AROCLOR 1254, Method: PREINCUBATION) “inactive; negative”. Also, the mutagenic call was “inactive; negative” (Test System: AMES SALMONELLA TYPHIMURIUM, Strain/Indicator: TA1535, Metabolic Activation: HAMSTER, LIVER, S-9, AROCLOR 1254, Method: PREINCUBATION); “inactive; negative” under setting [5]; “inactive; negative” (Test System: AMES SALMONELLA TYPHIMURIUM, Strain/Indicator: TA1535, Metabolic Activation: RAT, LIVER, S-9, AROCLOR 1254, Method: PREINCUBATION); “inactive; negative” (Test System: AMES SALMONELLA TYPHIMURIUM, Strain/Indicator: TA1537, Metabolic Activation: HAMSTER, LIVER, S-9, AROCLOR 1254, Method: PREINCUBATION); “inactive; negative” under setting [6]; “inactive; negative” (Test System: AMES SALMONELLA TYPHIMURIUM, Strain/Indicator: TA1537, Metabolic Activation: RAT, LIVER, S-9, AROCLOR 1254, Method: PREINCUBATION).

Values taken from PubChem BioAssay AID1259407 (Chemical Carcinogenesis Research Information System (CCRIS), 2018).
